This is an account of results in the Kinase Knowledgebase extract (Sharma et al. 2016).

A value given as a limit tells only on which side of the number the result lay.

One may read the IC50 as the midpoint of a concentration-inhibition curve. Low values mean greater potency, high ones weaker potency.

The target of the experiment is PIK3CA (human) (UniProt P42336). Kind of experiment: Assessment of PIK3CA Kinase Activity.
Sequence of PIK3CA (human) (P42336 whole entry, looked up): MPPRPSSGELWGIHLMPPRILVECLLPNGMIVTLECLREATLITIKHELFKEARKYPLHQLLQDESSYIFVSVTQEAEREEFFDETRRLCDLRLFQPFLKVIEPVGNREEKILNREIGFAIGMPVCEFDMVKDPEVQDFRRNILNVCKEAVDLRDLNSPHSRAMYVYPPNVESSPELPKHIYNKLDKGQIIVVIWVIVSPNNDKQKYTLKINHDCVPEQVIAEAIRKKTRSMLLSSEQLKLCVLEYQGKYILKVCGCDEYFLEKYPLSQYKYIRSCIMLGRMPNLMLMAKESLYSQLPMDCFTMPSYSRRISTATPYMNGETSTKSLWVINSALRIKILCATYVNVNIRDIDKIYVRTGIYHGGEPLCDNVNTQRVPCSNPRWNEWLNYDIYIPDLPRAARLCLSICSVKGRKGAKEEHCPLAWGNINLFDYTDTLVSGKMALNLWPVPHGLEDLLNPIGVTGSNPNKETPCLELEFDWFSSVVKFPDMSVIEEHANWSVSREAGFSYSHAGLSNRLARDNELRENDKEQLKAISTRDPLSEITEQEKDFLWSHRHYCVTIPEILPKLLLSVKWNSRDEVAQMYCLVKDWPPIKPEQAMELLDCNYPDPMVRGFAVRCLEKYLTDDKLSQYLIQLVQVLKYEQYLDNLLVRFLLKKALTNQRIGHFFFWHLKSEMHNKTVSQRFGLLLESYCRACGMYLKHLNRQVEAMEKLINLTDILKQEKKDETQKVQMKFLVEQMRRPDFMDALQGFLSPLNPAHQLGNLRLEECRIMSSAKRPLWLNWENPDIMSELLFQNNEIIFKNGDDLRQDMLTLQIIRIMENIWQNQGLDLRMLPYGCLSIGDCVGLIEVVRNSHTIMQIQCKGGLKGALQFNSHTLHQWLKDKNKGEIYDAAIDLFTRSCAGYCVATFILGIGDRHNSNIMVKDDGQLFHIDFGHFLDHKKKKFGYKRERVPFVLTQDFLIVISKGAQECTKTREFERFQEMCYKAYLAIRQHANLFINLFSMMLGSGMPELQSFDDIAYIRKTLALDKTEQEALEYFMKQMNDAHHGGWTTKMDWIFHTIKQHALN

`CC#CCc1c(C)nc(C)nc1N1CCOc2c(C)cc(-c3cnc4sc(N)nc4c3)cc2C1` yielded a concentration for half-maximal inhibition (IC50) not above 0.1 µM.
Under `Cc1cc(-c2cnc3sc(N)nc3c2)cc2c1OCCN(c1nc(N)nc(C)c1-c1cccc(F)c1)C2` stands not above 0.1 µM.
In turn, `Cc1cc(-c2cnc(N)s2)cc2c1OCCN(c1nc(N)nc(C)c1C(C)C)C2` showed an IC50 not above 0.1 µM.
To `CC(=O)Nc1ncc(-c2cc(C)c3c(c2)CN(c2nc(N)nc(C)c2C(C)C)CCO3)s1` belongs 0.1 to 0.5 µM; to `Cc1cc(-c2cnc3sc(N)nc3c2)cc2c1OCCN(c1nc(CNC3CC3)nc(C)c1C(C)C)C2`, not above 0.1 µM.
